Where two headings read alike, the source gives them in different places.
Biological target: T1, Nanoluciferase-BRD9 fusion protein (3×FLAG-NLuc-BRD9) in SYO-1 cells (Homo sapiens, UniProt Q9H8M2)
T1 construct: expressed in transfected cells; host or cells: SYO-1
T1 sequence (Q9H8M2 1-597): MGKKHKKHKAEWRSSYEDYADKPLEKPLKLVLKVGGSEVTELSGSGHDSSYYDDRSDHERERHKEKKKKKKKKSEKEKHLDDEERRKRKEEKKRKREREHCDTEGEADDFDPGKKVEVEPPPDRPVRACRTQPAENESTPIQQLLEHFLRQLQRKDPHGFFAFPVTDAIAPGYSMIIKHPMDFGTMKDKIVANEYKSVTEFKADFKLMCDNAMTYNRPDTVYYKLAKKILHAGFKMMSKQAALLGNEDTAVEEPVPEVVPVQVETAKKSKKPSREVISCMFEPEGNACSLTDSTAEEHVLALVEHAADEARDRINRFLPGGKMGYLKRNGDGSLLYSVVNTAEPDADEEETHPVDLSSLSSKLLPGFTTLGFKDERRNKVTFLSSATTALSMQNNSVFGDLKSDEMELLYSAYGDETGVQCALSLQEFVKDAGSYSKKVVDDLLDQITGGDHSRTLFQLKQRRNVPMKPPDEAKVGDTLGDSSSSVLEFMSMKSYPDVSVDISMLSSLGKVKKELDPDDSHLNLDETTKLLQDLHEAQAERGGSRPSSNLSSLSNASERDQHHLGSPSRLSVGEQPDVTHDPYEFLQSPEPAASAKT
Assay: SYO1 BRD9 NanoLuc degradation assay
Format: cell-based
Conditions: SYO-1 cells expressing 3×FLAG-NLuc-BRD9, 6 hours incubation, 1 μM top dose, read-out: SYO1 BRD9-NanoLuc degradation IC50
In short: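 Stable SYO-1 line expressing 3×FLAG-NLuc-BRD9 was seeded at 8000 cells/well, then treated next day for 6 h with 10-point 3-fold dilutions (top 1 μM final). Nano-Glo luminescence was read. % inhibition was normalised to DMSO (high control) and 1 μM reference BRD9 degrader (low control).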

Structure (SMILES)	DC50 (Table 6C)	DC50 (Table 6B)
COc1cc(-c2cn(C)c(=O)c3c(C)csc23)cc(OC)c1CN1CCC(CN2CCC3(CC2)CN(c2ccc4c(c2)C(=O)N(C2CCC(=O)NC2=O)C4=O)C3)CC1 (centres unmarked) [Compound D161]	< 10 nM	–
COc1cc(-c2cn(C)c(=O)c3cc(C(=O)NC4CC5(C4)CN(CCCN4CCN(c6ccc7c(c6)C(=O)N(C6CCC(=O)NC6=O)C7=O)CC4)C5)sc23)cc(OC)c1CN(C)C (centres unmarked) [Compound D75]	–	< 10 nM
COc1cc(-c2cn(C)c(=O)c3cc(C(=O)NC4CC5CC4CN5CCCCCOc4cccc5c4C(=O)N(C4CCC(=O)NC4=O)C5=O)sc23)cc(OC)c1CN(C)C (centres unmarked) [Compound D82]	–	> 100 nM
COc1cc(-c2cn(C)c(=O)c3cc(C(=O)NC4CCN(CC(F)(F)CCCOc5ccc6c(c5)C(=O)N(C5CCC(=O)NC5=O)C6=O)CC4)sc23)cc(OC)c1CN(C)C (centres unmarked) [Compound D83]	–	< 10 nM
COc1cc(-c2cn(C)c(=O)c3cc(C(=O)N[C@H]4CCN(c5ccc6c(c5)C(=O)N(C5CCC(=O)NC5=O)C6)CC4(F)F)sc23)cc(OC)c1CN(C)C (some centres unmarked) [Compound D152]	< 10 nM	–
COc1cc(-c2cn(C)c(=O)c3cc(C(=O)N[C@H]4CCN(C5CCN(c6ccc7c(c6)C(=O)N([C@H]6CCC(=O)NC6=O)C7)CC5)CC4(F)F)sc23)cc(OC)c1CN(C)C [Compound D141]	< 10 nM	–
COc1cc(-c2cn(C)c(=O)c3cc(C(=O)NC4CCC5CN(CCN6CCN(c7ccc8c(c7)C(=O)N(C7CCC(=O)NC7=O)C8=O)CC6)CC54)sc23)cc(OC)c1CN(C)C (centres unmarked) [Compound D38]	–	< 10 nM
COc1cc(-c2cn(C)c(=O)c3cc(C(=O)NC4CCC(N(C)CCCCOc5cccc6c5C(=O)N(C5CCC(=O)NC5=O)C6=O)CC4)sc23)cc(OC)c1CN(C)C (centres unmarked) [Compound D80]	–	> 100 nM
COc1cc(-c2cn(C)c(=O)c3cc(C(=O)NC4CCN(C)CC4(F)F)sc23)cc(OC)c1CN1CC(CN2CCC3(CC2)CN(c2ccc4c(c2)C(=O)N(C2CCC(=O)NC2=O)C4)C3)C1 (centres unmarked) [Compound D188]	< 10 nM	–
COc1cc(-c2cn(C)c(=O)c3cc(C(=O)NC4CCN(CCCCCOc5ccc6c(c5)C(=O)N(C5CCC(=O)NC5=O)C6=O)CC4(F)F)sc23)cc(OC)c1CN1CCC1 (centres unmarked) [Compound D28]	–	< 10 nM
COc1cc(-c2c(C)n(C)c(=O)c3cc(C(=O)NC4CCN(CCN5CCN(c6ccc7c(c6)C(=O)N(C6CCC(=O)NC6=O)C7)CC5)CC4(F)F)sc23)cc(OC)c1CN(C)C (centres unmarked) [Compound D171]	> 10 nM	–
COc1cc(-c2cn(C)c(=O)c3ccsc23)cc(OC)c1CN1CCC2CN(c3ccc4c(c3)C(=O)N(C3CCC(=O)NC3=O)C4)CCC2C1 (centres unmarked) [Compound D106]	< 10 nM	–
COc1cc(-c2cn(C)c(=O)c3ccsc23)cc(OC)c1CN1[C@H](C)CN(c2ccc3c(c2)CN(C2CCC(=O)NC2=O)C3=O)C[C@H]1C (some centres unmarked) [Compound D136]	< 10 nM	–
COc1cc(-c2cn(C)c(=O)c3cc(C(=O)N[C@H]4CCN(c5ccc6c(c5)CN(C5CCC(=O)NC5=O)C6=O)CC4(F)F)sc23)cc(OC)c1CN(C)C (some centres unmarked) [Compound D151]	< 10 nM	–
Cn1cc(-c2cccc(C(F)(F)F)c2)c2sc(C(=O)NC3CC4(CCN(c5ccc6c(c5)C(=O)N(C5CCC(=O)NC5=O)C6)CC4)C3)cc2c1=O (centres unmarked) [Compound D117]	< 10 nM	–
COc1cc(-c2cn(C)c(=O)c3cc(C(=O)NCC4CC45CCN(C(=O)CCN4CCN(c6ccc7c(c6)C(=O)N(C6CCC(=O)NC6=O)C7=O)CC4)CC5)sc23)cc(OC)c1CN(C)C (centres unmarked) [Compound D67]	–	> 10 nM
COc1cc(-c2cn(C)c(=O)c3cc(C(=O)NC4CC5CC4CN5C(=O)CCN4CCN(c5ccc6c(c5)C(=O)N(C5CCC(=O)NC5=O)C6=O)CC4)sc23)cc(OC)c1CN(C)C (centres unmarked) [Compound D68]	–	> 10 nM
COc1cc(-c2cn(C)c(=O)c3sccc23)cc(OC)c1CN1CCC(CN2CCC3(CC2)CC(Oc2ccc4c(c2)CN(C2CCC(=O)NC2=O)C4=O)C3)CC1 (centres unmarked) [Compound D193]	< 10 nM	–

Structure (SMILES)	DC50 (Table 6C)	DC50 (Table 6B)
COc1cc(-c2cn(C)c(=O)c3occc23)cc(OC)c1CN1CC(CN2CCC3(CC2)CN(c2ccc4c(c2)C(=O)N(C2CCC(=O)NC2=O)C4)C3)C1 (centres unmarked) [Compound D21]	–	< 10 nM
COc1cc(-c2cn(C)c(=O)c3cc(C(=O)NC4CCN(CCN5CCN(c6ccc7c(c6)C(=O)N(C6CCC(=O)NC6=O)C7)CC5)CC4(F)F)sc23)cc(OC)c1CN(C)C (centres unmarked) [Compound D200]	< 10 nM	–
COc1cc(-c2cn(C)c(=O)c3cc(NC(=O)C4CCN(CCCCCOc5cccc6c5C(=O)N(C5CCC(=O)NC5=O)C6=O)CC4(F)F)sc23)cc(OC)c1CN(C)C (centres unmarked) [Compound D59]	–	> 10 nM
COc1cc(-c2cn(C)c(=O)c3sccc23)cc(OC)c1CN1CCC2(CC1)CN(c1ccc3c(c1)C(=O)N(C1CCC(=O)NC1=O)C3)C2 (centres unmarked) [Compound D207]	< 10 nM	–
COc1cc(-c2cn(C)c(=O)c3cc(C(=O)NC4CCC45CCN(C(=O)CCN4CCN(c6ccc7c(c6)C(=O)N(C6CCC(=O)NC6=O)C7=O)CC4)CC5)sc23)cc(OC)c1CN(C)C (centres unmarked) [Compound D54]	–	> 100 nM
COc1cc(-c2c(C)n(C)c(=O)c3ccsc23)cc(OC)c1CN1CCC(CN2CCC3(CC2)CN(c2ccc4c(c2)C(=O)N(C2CCC(=O)NC2=O)C4)C3)CC1 (centres unmarked) [Compound D153]	< 10 nM	–
COc1cc(-c2cn(C)c(=O)c3cc(C(=O)NC4CCN(C)CC4(F)F)sc23)cc(OC)c1CN(C)CC(=O)NCCOCCOc1cccc2c1C(=O)N(C1CCC(=O)NC1=O)C2=O (centres unmarked) [Compound D30]	–	> 10 nM
COc1cc(-c2cn(C)c(=O)c3cc(C(=O)NC4CCN(C(=O)CCN5CCN(c6ccc7c(c6)C(=O)N(C6CCC(=O)NC6=O)C7=O)CC5)CC4)sc23)cc(OC)c1CN(C)C (centres unmarked) [Compound D78]	–	< 10 nM
COc1cc(-c2cn(C)c(=O)c3cc(C(=O)NCC4CC45CCN(CCCN4CCN(c6ccc7c(c6)C(=O)N(C6CCC(=O)NC6=O)C7=O)CC4)CC5)sc23)cc(OC)c1CN(C)C (centres unmarked) [Compound D56]	–	> 10 nM
COc1cc(-c2cn(C)c(=O)c3cc(C(=O)NCC4CC5(CCN(C(=O)CCN6CCN(c7ccc8c(c7)C(=O)N(C7CCC(=O)NC7=O)C8=O)CC6)CC5)C4)sc23)cc(OC)c1CN(C)C (centres unmarked) [Compound D35]	–	< 10 nM
COc1cc(-c2cn(C)c(=O)c3cc(C(=O)NC4CN(C5CCN(c6ccc7c(c6)C(=O)N(C6CCC(=O)NC6=O)C7)CC5)CC4(F)F)sc23)cc(OC)c1CN(C)C (centres unmarked) [Compound D182]	< 10 nM	–
COc1cc(-c2cn(C)c(=O)c3cc(C(=O)NC4CC5CC4CN5CCN4CCN(c5ccc6c(c5)C(=O)N(C5CCC(=O)NC5=O)C6=O)CC4)sc23)cc(OC)c1CN(C)C (centres unmarked) [Compound D70]	–	< 10 nM
COc1cc(-c2cn(C)c(=O)c3ccsc23)cc(OC)c1CN1CCC2(CC1)CN(c1ccc3c(c1)C(=O)N(C1CCC(=O)NC1=O)C3=O)C2 (centres unmarked) [Compound D183]	< 10 nM	–
COc1cc(-c2cn(C)c(=O)c3cc(C(=O)NC4CCN(CCN5CCC6(CC5)CN(c5ccc7c(c5)C(=O)N(C5CCC(=O)NC5=O)C7)C6)CC4(F)F)sc23)cc(OC)c1CN(C)C (centres unmarked) [Compound D175]	< 10 nM	–
COc1cc(-c2cn(C)c(=O)c3cc(C(=O)NC4CCC5(CCN(CCN6CCN(c7ccc8c(c7)C(=O)N(C7CCC(=O)NC7=O)C8=O)CC6)C5)C4)sc23)cc(OC)c1CN(C)C (centres unmarked) [Compound D39]	–	< 10 nM
COc1cc(-c2cn(C)c(=O)c3cc(C(=O)NC4CC5(CCN(c6ccc7c(c6)C(=O)N(C6CCC(=O)NC6=O)C7)CC5)C4)sc23)cc(OC)c1CN(C)C (centres unmarked) [Compound D149]	< 10 nM	–
COc1cc(-c2cn(C)c(=O)c3cc(C(=O)NC4CCN(CCN5CCN(c6ccc7c(c6)C(=O)N(C6CCC(=O)NC6=O)C7)CC5)CC4)sc23)cc(OC)c1CN(C)C (centres unmarked) [Compound D130]	< 10 nM	–
